Measurements: patent publication US12077503B2, “Substituted cyclic amides and their use as herbicides” (FMC CORPORATION, priority 2015, dated 2024)

Experiments:
Type in all cases: in vivo
[1] = system: ducksalad (Heteranthera limosa); assay: Test B flooded paddy test; conditions: Heteranthera limosa, 250 g ai/ha, Flood; 0 to 100 scale where 0 is no effect and 100 is complete control; read-out: Ducksalad plant response rating
In short: (§1)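 Visual ratings (0 none to 100 complete control) are relative to untreated plants, taken 13–15 d after treatment in a greenhouse. Test material went straight into floodwater standing 3 cm above the soil, kept constant, on plants at the 2-leaf stage.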

[2] = system: sedge, umbrella (small-flower umbrella sedge, Cyperus difformis); assay: Test B flooded paddy test; conditions: Cyperus difformis, 250 g ai/ha, Flood; 0 to 100 scale where 0 is no effect and 100 is complete control; read-out: Sedge, Umbrella plant response rating
In short: as §1

rice (Oryra sativa) = assay: Test B flooded paddy test; conditions: Oryza sativa, 250 g ai/ha, Flood; 0 to 100 scale where 0 is no effect and 100 is complete control; read-out: Rice plant response rating
In short: as §1

[3] = system: barnyardgrass (Echinochloa crus-galli); assay: Test B flooded paddy test; conditions: Echinochloa crus-galli, 250 g ai/ha, Flood; 0 to 100 scale where 0 is no effect and 100 is complete control; read-out: Barnyardgrass plant response rating
In short: as §1

Kochia (Kochia scoparia) [4] = assay: Test A preemergence; conditions: Bassia scoparia, pre-emergence, 240 h, Preemergence
In short: (§2)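 Visual injury scores from 0, no effect, to 100, complete control, were assigned versus untreated controls roughly 10 d after treatment in the greenhouse. Test chemicals, formulated with surfactant in a non-phytotoxic solvent, were applied to planted seeds as a preemergence soil spray or postemergence to one- to two-leaf plants 2 to 10 cm tall, in loam–sand soil.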

[5] = system: pigweed (Amaranthus retroflexus); assay: Test A preemergence; conditions: Amaranthus retroflexus, pre-emergence, 240 h, Preemergence
[6] = system: ryegrass, Italian (Italian ryegrass, Lolium multiflorum); assay: Test A preemergence; conditions: Lolium multiflorum, pre-emergence, 240 h, Preemergence
In short: as §2

[7] = system: giant foxtail (Setaria faberii); assay: Test A preemergence; conditions: Setaria faberi, pre-emergence, 240 h, Preemergence
In short: as §2

[8] = system: ragweed (common ragweed, Ambrosia elatior); assay: Test A preemergence; conditions: Ambrosia artemisiifolia, pre-emergence, 240 h, Preemergence
In short: as §2

[9] = system: barnyardgrass (Echinochloa crus-galli); assay: Test A preemergence; conditions: Echinochloa crus-galli, pre-emergence, 240 h, Preemergence
In short: as §2

Kochia (Kochia scoparia) [10] = assay: Test A postemergence; conditions: Bassia scoparia, post-emergence, 240 h
In short: as §2

[11] = system: pigweed (Amaranthus retroflexus); assay: Test A postemergence; conditions: Amaranthus retroflexus, post-emergence, 240 h
In short: as §2

[12] = system: ryegrass, Italian (Italian ryegrass, Lolium multiflorum); assay: Test A postemergence; conditions: Lolium multiflorum, post-emergence, 240 h
In short: as §2

[13] = system: wheat (Triticum aestivum); assay: Test A postemergence; conditions: Triticum aestivum, post-emergence, 240 h
In short: as §2

corn (Zea mays) = assay: Test A postemergence; conditions: Zea mays, post-emergence, 240 h
In short: as §2

[14] = system: Galium (catchweed bedstraw, Galium aparine); assay: Test A postemergence; conditions: Galium, post-emergence, 240 h
In short: as §2

[15] = system: blackgrass (Alopecurus myosuroides); assay: Test A postemergence; conditions: Alopecurus myosuroides, post-emergence, 240 h
In short: as §2

[16] = system: giant foxtail (Setaria faberii); assay: Test A postemergence; conditions: Setaria faberi, post-emergence, 240 h
In short: as §2

[17] = system: ragweed (common ragweed, Ambrosia elatior); assay: Test A postemergence; conditions: Ambrosia artemisiifolia, post-emergence, 240 h
In short: as §2

[18] = system: barnyardgrass (Echinochloa crus-galli); assay: Test A postemergence; conditions: Echinochloa crus-galli, post-emergence, 240 h
In short: as §2

Work on CN1C[C@H](c2ccc(C(F)(F)F)cn2)[C@@H](C(=O)Nc2cccc(F)c2F)C1=O [Compound 1052] yielded a pest or weed control at 250 g/ha [1] of 100%, a pest or weed control at 250 g/ha [2] of 0% and a pest or weed control at 250 g/ha (rice (Oryra sativa)) of 0%. The pest or weed control at 250 g/ha [3] was 85%, the pest or weed control at 31 g/ha (Kochia (Kochia scoparia) [4]; 31 g ai/ha, 0 to 100 scale where 0 is no effect and 100 is complete control, read-out: Kochia plant response rating) was 20% and the pest or weed control at 125 g/ha (Kochia (Kochia scoparia) [4]; 125 g ai/ha, visual injury rating after approximately 10 d, read-out: Kochia plant response rating (0 to 100 scale, 0 is no effect, 100 is complete control)) was 70%. The pest or weed control at 31 g/ha ([5]; 31 g ai/ha, 0 to 100 scale where 0 is no effect and 100 is complete control, read-out: Pigweed plant response rating) was 40%, the pest or weed control at 125 g/ha ([5]; 125 g ai/ha, visual injury rating after approximately 10 d, read-out: Pigweed plant response rating (0 to 100 scale, 0 is no effect, 100 is complete control)) was 80% and the pest or weed control at 31 g/ha ([6]; 31 g ai/ha, 0 to 100 scale where 0 is no effect and 100 is complete control, read-out: Ryegrass, Italian plant response rating) was 0%. It also gave a pest or weed control at 125 g/ha ([6]; 125 g ai/ha, visual injury rating after approximately 10 d, read-out: Ryegrass, Italian plant response rating (0 to 100 scale, 0 is no effect, 100 is complete control)) of 30%, a pest or weed control at 125 g/ha ([7]; 125 g ai/ha, visual injury rating after approximately 10 d, read-out: Foxtail, Giant plant response rating (0 to 100 scale, 0 is no effect, 100 is complete control)) of 90% and a pest or weed control at 31 g/ha ([7]; 31 g ai/ha, 0 to 100 scale (0 no effect, 100 complete control), read-out: Plant response rating, Foxtail, Giant) of 80%. For the same molecule, the pest or weed control at 31 g/ha ([8]; 31 g ai/ha, 0 to 100 scale where 0 is no effect and 100 is complete control, read-out: Ragweed plant response rating) was 0%, the pest or weed control at 125 g/ha ([8]; 125 g ai/ha, visual injury rating after approximately 10 d, read-out: Ragweed plant response rating (0 to 100 scale, 0 is no effect, 100 is complete control)) was 20% and the pest or weed control at 125 g/ha ([9]; 125 g ai/ha, visual injury rating after approximately 10 d, read-out: Barnyardgrass plant response rating (0 to 100 scale, 0 is no effect, 100 is complete control)) was 90%. For the same molecule, the pest or weed control at 31 g/ha ([9]; 31 g ai/ha, 0 to 100 scale (0 no effect, 100 complete control), read-out: Plant response rating, Barnyardgrass) was 30%, the pest or weed control at 125 g/ha (Kochia (Kochia scoparia) [10]; 125 g ai/ha, postemergence, visual injury on 0 to 100 scale (0 no effect, 100 complete control), approx. 10 d, read-out: Kochia plant response rating) was 40% and the pest or weed control at 31 g/ha (Kochia (Kochia scoparia) [10]; Postemergence, 31 g ai/ha, visual injury after approx. 10 d, 0 to 100 scale, 0 no effect, 100 complete control, read-out: Plant response rating, Kochia) was 0%. For the same molecule, the pest or weed control at 125 g/ha ([11]; 125 g ai/ha, postemergence, visual injury on 0 to 100 scale (0 no effect, 100 complete control), approx. 10 d, read-out: Pigweed plant response rating) was 30%, the pest or weed control at 31 g/ha ([11]; Postemergence, 31 g ai/ha, visual injury after approx. 10 d, 0 to 100 scale, 0 no effect, 100 complete control, read-out: Plant response rating, Pigweed) was 0% and the pest or weed control at 125 g/ha ([12]; 125 g ai/ha, postemergence, visual injury on 0 to 100 scale (0 no effect, 100 complete control), approx. 10 d, read-out: Ryegrass, Italian plant response rating) was 20%. It also gave a pest or weed control at 31 g/ha ([12]; Postemergence, 31 g ai/ha, visual injury after approx. 10 d, 0 to 100 scale, 0 no effect, 100 complete control, read-out: Plant response rating, Ryegrass, Italian) of 0%, a plant injury at 125 g/ha ([13]; 125 g ai/ha, postemergence, visual injury on 0 to 100 scale (0 no effect, 100 complete control), approx. 10 d, read-out: Wheat plant response rating) of 0% and a plant injury at 31 g/ha ([13]; Postemergence, 31 g ai/ha, visual injury after approx. 10 d, 0 to 100 scale, 0 no effect, 100 complete control, read-out: Plant response rating, Wheat) of 0%. For the same molecule, the plant injury at 125 g/ha (corn (Zea mays); 125 g ai/ha, postemergence, visual injury on 0 to 100 scale (0 no effect, 100 complete control), approx. 10 d, read-out: Corn plant response rating) was 0%, the Corn plant response rating (crop injury, 0 = no effect, 100 = complete kill) at 31 g/ha (corn (Zea mays); Postemergence, 31 g ai/ha, visual injury after approx. 10 d, 0 to 100 scale, 0 no effect, 100 complete control) was 0% and the pest or weed control at 125 g/ha ([14]; 125 g ai/ha, postemergence, visual injury on 0 to 100 scale (0 no effect, 100 complete control), approx. 10 d, read-out: Galium plant response rating) was 70%. For the same molecule, the pest or weed control at 31 g/ha ([14]; Postemergence, 31 g ai/ha, visual injury after approx. 10 d, 0 to 100 scale, 0 no effect, 100 complete control, read-out: Plant response rating, Galium) was 40%, the pest or weed control at 125 g/ha ([15]; 125 g ai/ha, postemergence, visual injury on 0 to 100 scale (0 no effect, 100 complete control), approx. 10 d, read-out: Blackgrass plant response rating) was 20% and the pest or weed control at 31 g/ha ([15]; Postemergence, 31 g ai/ha, visual injury after approx. 10 d, 0 to 100 scale, 0 no effect, 100 complete control, read-out: Plant response rating, Blackgrass) was 0%. The pest or weed control at 125 g/ha ([16]; 125 g ai/ha, postemergence, visual injury on 0 to 100 scale (0 no effect, 100 complete control), approx. 10 d, read-out: Foxtail, Giant plant response rating) was 70%, the pest or weed control at 31 g/ha ([16]; Postemergence, 31 g ai/ha, visual injury after approx. 10 d, 0 to 100 scale, 0 no effect, 100 complete control, read-out: Plant response rating, Foxtail, Giant) was 30% and the pest or weed control at 125 g/ha ([17]; 125 g ai/ha, postemergence, visual injury on 0 to 100 scale (0 no effect, 100 complete control), approx. 10 d, read-out: Ragweed plant response rating) was 30%. It also gave a pest or weed control at 31 g/ha ([17]; Postemergence, 31 g ai/ha, visual injury after approx. 10 d, 0 to 100 scale, 0 no effect, 100 complete control, read-out: Plant response rating, Ragweed) of 0%, a pest or weed control at 125 g/ha ([18]; 125 g ai/ha, postemergence, visual injury on 0 to 100 scale (0 no effect, 100 complete control), approx. 10 d, read-out: Barnyardgrass plant response rating) of 80% and a pest or weed control at 31 g/ha ([18]; Postemergence, 31 g ai/ha, visual injury after approx. 10 d, 0 to 100 scale, 0 no effect, 100 complete control, read-out: Plant response rating, Barnyardgrass) of 30%.
